{"source": "patent US20110020480A1", "about": "“USE OF BENZOXAZINOIDS-CONTAINING CEREAL GRAIN PRODUCTS FOR HEALTH-IMPROVING PURPOSES” (priority 2008, published 2011)", "origin": "cited, not measured here", "key": {"[1]": {"conditions": "daily dose"}}, "data": [{"smiles": "COc1ccc2[nH]c(=O)oc2c1", "note": "[6-MBOA, 6-methoxy-benzoxazolin-2-one]", "values": [{"measurement": "effect on depression or mood", "setting": "human males", "value": "significant positive effect"}, {"measurement": "therapeutic dose for treating depressive states of mind", "setting": "[1]", "value": "approx. 15 mg daily"}, {"measurement": "cumulative daily dose for obtaining appetite suppression", "setting": "overweight women", "value": 15, "unit": "µg"}]}]}
